Data: patent publication US20230219939A1, “N-(1-CYANO-PYRROLIDIN-3-YL)-5-(3-(TRIFLUOROMETHYL)PHENYL)OXAZOLE-2-CARBOXAMIDE DERIVATIVES AND THE CORRESPONDING OXADIAZOLE DERIVATIVES AS USP30 INHIBITORS FOR THE TREATMENT OF MITOCHONDRIAL DYSFUNCTION” (MISSION THERAPEUTICS LIMITED, priority 2020, published 2023)
Several values for one entry are separate records, joined by “and”; a condition that tells them apart may be missing. Equal entries are not always repeated. Where two headings read alike, the source gives them in different places.

Key:
[1] = biological target: T1, UCHL1 (Homo sapiens, UniProt P09936); assay: UCHL1 DUB IC50; format: biochemical
T1 sequence (P09936 1-223): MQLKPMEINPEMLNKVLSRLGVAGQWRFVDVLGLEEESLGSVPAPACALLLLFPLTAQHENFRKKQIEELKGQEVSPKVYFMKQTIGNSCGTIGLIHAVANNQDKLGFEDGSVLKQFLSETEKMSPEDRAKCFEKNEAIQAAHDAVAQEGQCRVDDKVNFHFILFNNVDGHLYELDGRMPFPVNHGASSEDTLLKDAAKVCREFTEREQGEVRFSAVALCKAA

[2] = biological target: T2, USP30 (Homo sapiens, UniProt Q70CQ3); assay: USP30 biochemical IC50 assay (fluorescence polarisation)
T2 construct: purchased Boston Biochem E582
T2 sequence (Q70CQ3 57-517 limits assumed): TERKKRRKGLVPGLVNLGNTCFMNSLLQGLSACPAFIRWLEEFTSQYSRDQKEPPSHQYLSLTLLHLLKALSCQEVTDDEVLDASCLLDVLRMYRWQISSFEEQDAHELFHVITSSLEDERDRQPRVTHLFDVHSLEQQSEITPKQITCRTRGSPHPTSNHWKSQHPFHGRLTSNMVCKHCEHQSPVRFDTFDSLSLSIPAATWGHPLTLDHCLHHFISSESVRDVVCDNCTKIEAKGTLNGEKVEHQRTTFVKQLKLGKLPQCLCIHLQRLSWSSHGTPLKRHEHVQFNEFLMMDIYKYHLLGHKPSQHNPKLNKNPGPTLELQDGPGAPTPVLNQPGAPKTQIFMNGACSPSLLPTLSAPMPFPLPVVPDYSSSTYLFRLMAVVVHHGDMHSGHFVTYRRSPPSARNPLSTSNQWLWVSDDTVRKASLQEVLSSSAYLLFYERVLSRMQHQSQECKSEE
Description: Dilution plates were prepared at 21 times the final concentration (2100 μM for a final concentration of 100 μM) in 50% DMSO in a 96-well polypropylene V-bottom plate (Greiner #651201). A typical 8-point dilution series would be 100, 30, 10, 3, 1, 0.3, 0.1, 0.03 μM final. Reactions were performed in duplicate in black 384 well plates (small volume, Greiner 784076) in a final reaction volume of 21 μl. Either 1 μl of 50% DMSO or diluted compound was added to the plate. USP30 (Boston Biochem #E582) was diluted in reaction buffer (40 mM Tris, pH 7.5, 0.005% Tween 20, 0.5 mg/ml BSA, 5 mM beta-mercaptoethanol) to achieve a final assay concentration of 4 nM, and 10 μl of diluted USP30 was added to the compound. Enzyme and compound were incubated for 30 min at room temp. Reactions were initiated by the addition of 50 nM of TAMRA labelled peptide linked to ubiquitin via an iso-peptide bond as fluorescence polarisation substrate. Reactions were read immediately after addition of substrate and following a 2-hour incubation at room temperature. Readings were performed on a Pherastar Plus (BMG Labtech). λ Excitation 540 nm; λ Emission 590 nm.

[3] = biological target: Cathepsin V (Homo sapiens, UniProt O60911); assay: Cathepsin V IC50; format: biochemical
Cathepsin V, sequence (O60911 114-334, species assumed): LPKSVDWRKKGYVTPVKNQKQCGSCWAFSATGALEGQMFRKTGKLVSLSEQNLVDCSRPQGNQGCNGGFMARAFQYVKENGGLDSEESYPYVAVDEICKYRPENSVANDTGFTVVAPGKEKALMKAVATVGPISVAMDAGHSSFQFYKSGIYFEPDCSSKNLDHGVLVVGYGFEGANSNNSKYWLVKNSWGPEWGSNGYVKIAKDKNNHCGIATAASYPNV

[4] = tested on: USP2, USP6, USP10, USP16, USP21, USP22, USP25, USP28; assay: DUB selectivity panel IC50; format: biochemical
[5] = biological target: Cathepsin B (Homo sapiens, UniProt P07858); assay: Cathepsin B IC50; format: biochemical
[6] = biological target: Cathepsin L (Homo sapiens, UniProt P07711); assay: Cathepsin L IC50; format: biochemical
Cathepsin L, sequence (P07711 114-333, species assumed): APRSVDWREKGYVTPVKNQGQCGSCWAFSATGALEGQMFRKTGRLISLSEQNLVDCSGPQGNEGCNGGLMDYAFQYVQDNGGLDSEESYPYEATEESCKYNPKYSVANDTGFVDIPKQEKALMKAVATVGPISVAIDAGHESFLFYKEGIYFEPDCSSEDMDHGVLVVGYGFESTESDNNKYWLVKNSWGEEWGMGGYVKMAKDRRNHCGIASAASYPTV

[7] = tested on: Cathepsins B, K, L, S, V; assay: Cathepsin panel IC50 (summary over B, K, L, S, V); format: biochemical; details: for IC50: range over the five cathepsins
[8] = biological target: Cathepsin S (Homo sapiens, UniProt P25774); assay: Cathepsin S IC50; format: biochemical
Cathepsin S, sequence (P25774 115-331, species assumed): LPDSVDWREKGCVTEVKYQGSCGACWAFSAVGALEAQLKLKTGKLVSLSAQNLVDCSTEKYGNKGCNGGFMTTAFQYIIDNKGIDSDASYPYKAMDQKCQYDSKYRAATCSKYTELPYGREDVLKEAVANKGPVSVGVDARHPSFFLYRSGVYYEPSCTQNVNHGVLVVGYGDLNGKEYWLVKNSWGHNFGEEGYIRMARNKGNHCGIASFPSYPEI

[9] = biological target: T3, Cathepsin K (Homo sapiens, UniProt P43235); assay: Cathepsin K IC50; format: biochemical
T3 sequence (P43235 115-329): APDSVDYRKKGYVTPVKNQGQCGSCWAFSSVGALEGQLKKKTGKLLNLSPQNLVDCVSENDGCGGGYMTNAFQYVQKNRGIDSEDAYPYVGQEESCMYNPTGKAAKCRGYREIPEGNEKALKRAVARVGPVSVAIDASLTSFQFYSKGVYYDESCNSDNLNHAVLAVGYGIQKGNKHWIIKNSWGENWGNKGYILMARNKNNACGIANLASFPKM

[10] = Mouse plasma stability; format: in vitro ADME; details: mouse plasma; read-out: Stability Mouse plasma t1/2
[11] = tested on: mouse hepatocytes; assay: Hepatocyte Cl mouse; format: in vitro ADME
Description: Hep Cl mouse: in vitro hepatocyte clearance in mouse cells.
Clu: in vitro clearance. Clu as defined here is the scaled clearance, in turn calculated from the intrinsic clearance. The intrinsic clearance is the predicted clearance due to hepatic metabolic reactions, determined from incubation of a compound in a hepatocyte preparation.

[12] = USP30 biochemical IC50 assay, read-out: USP30 IC50
[13] = range over the eight DUBs, read-out: DUB IC50 (μM) USP2, USP6, USP10, USP16, USP21, USP22, USP25, USP28
[14] = read-out: Cathepsin IC50 (μM) Cathepsin L
[15] = read-out: Cathepsin IC50 (μM) B, K, L, S, V
[16] = read-out: Cathepsin IC50 (μM) B, K, U, S, V
[17] = read-out: Cathepsin IC50 (μM) Cathepsin U

Structure (SMILES)	IC50 [2, 12]	IC50 ([2]; read-out: DUB IC50 (μM) USP30)	IC50 [1]	IC50 [3]	IC50 [4, 13]	IC50 [5]	further results
N#CN1CC[C@H](C(=O)Nc2ncc(-c3ccccc3)s2)C1 [C, reference compound]							fold more potent against USP30 than UCHL1 [1]: 0.8 fold
C[C@@H]1C[C@@H](NC(=O)c2ncc(-c3cccc(C(F)(F)F)c3)o2)CN1C#N [Example 2, N-((3R,5R)-1-cyano-5-methylpyrrolidin-3-yl)-5-(3-(trifluoromethyl)phenyl)oxazole-2-carboxamide]	0.008 µM	0.008 µM	280 µM	56 µM	17.2 to 108 µM	79 µM	IC50 [6, 14]: 7.9 µM
CS(=O)(=O)C[C@@H]1C[C@@H](NC(=O)c2ncc(-c3cccc(C(F)(F)F)c3)o2)CN1C#N [Example 3, N-((3R,5S)-1-Cyano-5-((methylsulfonyl)methyl)pyrrolidin-3-yl)-5-(3-(trifluoromethyl)phenyl)-oxazole-2-carboxamide]	0.003 µM						
N#CN1C[C@H](NC(=O)c2ncc(-c3cccc(C(F)(F)F)c3)o2)C[C@H]1Cn1ccnn1 [Example 4, N-((3R,5S)-5-((1H-1,2,3-Triazol-1-yl)methyl)-1-cyanopyrrolidin-3-yl)-5-(3-(trifluoromethyl)phenyl) oxazole-2-carboxamide]	0.004 µM						
COC[C@@H]1C[C@@H](NC(=O)c2nnc(-c3cc(C(F)(F)F)ccc3OC3CC3)o2)CN1C#N [Example 5, N-((3R,5S)-1-Cyano-5-(methoxymethyl)pyrrolidin-3-yl)-5-(2-cyclopropoxy-5-(trifluoromethyl)phenyl)-1,3,4-oxadiazole-2-carboxamide]	0.041 µM						
C[C@@H]1C[C@@H](NC(=O)c2nnc(-c3cc(C(F)(F)F)ccc3OC3CC3)o2)CN1C#N [Example 6, N-((3R,5R)-1-Cyano-5-methylpyrrolidin-3-yl)-5-(2-cyclopropoxy-5-(trifluoromethyl)phenyl)-1,3,4-oxadiazole-2-carboxamide]	0.073 µM						
C[C@@H]1C[C@@H](NC(=O)c2nnc(-c3cccc(C(F)(F)F)c3)o2)CN1C#N [Example 7, N-((3R,5R)-1-Cyano-5-methylpyrrolidin-3-yl)-5-(3-(trifluoromethyl)phenyl)-1,3,4-oxadiazole-2-carboxamide]	0.033 µM	0.004 to 0.033 µM	> 300 µM				
COC[C@@H]1C[C@@H](NC(=O)c2nnc(-c3cccc(C(F)(F)F)c3)o2)CN1C#N [Example 8, N-((3R,5S)-1-Cyano-5-(methoxymethyl)pyrrolidin-3-yl)-5-(3-(trifluoromethyl)phenyl)-1,3,4-oxadiazole-2-carboxamide]	0.038 µM	0.038 µM and 0.004 to 0.033 µM	> 300 µM	> 30 µM	4.6 to 78.9 µM	116 µM	IC50 [6, 14]: > 30 µM
COC[C@@H]1C[C@@H](NC(=O)c2ncc(-c3cc(C(F)(F)F)ccc3OC3CC3)o2)CN1C#N [Example 9, N-((3R,5S)-1-cyano-5-(methoxymethyl)pyrrolidin-3-yl)-5-(2-cyclopropoxy-5-(trifluoromethyl)phenyl)-oxazole-2-carboxamide]	0.004 µM	0.004 µM and 0.004 to 0.033 µM	> 300 µM	101 µM	2.9 to 135 µM	> 300 µM	IC50 [7, 15]: ≥ 9.9 µM; IC50 [6, 14]: 18.2 µM
COC[C@@H]1C[C@@H](NC(=O)c2nnc(-c3cc(C(F)(F)F)ccc3OC)o2)CN1C#N [Example 10, N-((3R,5S)-1-Cyano-5-(methoxymethyl)pyrrolidin-3-yl)-5-(2-methoxy-5-(trifluoromethyl)phenyl)-1,3,4-oxadiazole-2-carboxamide]	0.041 µM						
COC[C@@H]1C[C@@H](NC(=O)c2nnc(-c3cc(C(F)(F)F)ccc3Cl)o2)CN1C#N [Example 11, 5-(2-Chloro-5-(trifluoromethyl)phenyl)-N-((3R,5S)-1-cyano-5-(methoxymethyl)pyrrolidin-3-yl)-1,3,4-oxadiazole-2-carboxamide]	0.022 µM	0.004 to 0.033 µM	> 300 µM				
COC[C@H]1C[C@@H](NC(=O)c2ncc(-c3cccc(C(F)(F)F)c3)o2)CN1C#N [Example 12, N-((3R,5R)-1-Cyano-5-(methoxymethyl)pyrrolidin-3-yl)-5-(3-(trifluoromethyl)phenyl)oxazole-2-carboxamide]	0.015 µM	0.015 µM	149 µM	> 30 µM	> 300 µM	> 300 µM	DUB selectivity preference for USP30 v UCHL1 [1]: 9933; IC50 [8]: > 30 µM; IC50 [9]: > 30 µM; Selectivity preference for USP30 v cathepsins [7]: >2000; IC50 [7, 15]: > 30 µM; DUB selectivity preference for USP30 v 8 DUBs [4]: >20000; IC50 [6, 14]: > 30 µM
N#CN1CC[C@@H](NC(=O)c2cc(-c3ccc(C(F)(F)F)cc3)no2)C1 [Reference Example A, reference compound]	0.12 µM	0.12 µM		7.2 µM		0.85 µM	half-life [10]: > 120 min; IC50 [7, 16]: ≥ 0.73 µM; Hepatocyte Cl mouse Scaled Clu [11]: 118 mL/min/kg; IC50 ([4]; range over seven DUBs, exc. USP6, read-out: DUB IC50 (μM) USP2, USP6, USP10, USP16, USP21, USP22, USP25, USP28 (exc. USP6)): 0.81 to 3 µM; IC50 [6, 17]: 2.1 µM
N#CN1CC[C@H](C(=O)Nc2cn(-c3cccc(C(F)(F)F)c3)cn2)C1 [Reference Example B, reference compound]	0.3 µM	0.3 µM	0.15 µM	2.5 µM	3.8 to 59.7 µM	4.6 µM	half-life [10]: 10.4 min; DUB selectivity preference for USP30 v UCHL1 [1]: 0.5; fold more potent against USP30 than UCHL1 [1]: 0.5 fold; IC50 [8]: 6.4 µM; IC50 [9]: 0.91 µM; fold more potent against USP30 than against cathepsin K [9]: 3 fold; Selectivity preference for USP30 v cathepsins [7]: 3.0-21; IC50 [7, 16]: 0.91 to 6.4 µM; Hepatocyte Cl mouse Scaled Clu [11]: >121 mL/min/kg; DUB selectivity preference for USP30 v 7/8 DUBs ([4]; Ref. Ex. A 7 DUBs (exc. USP6), Ref. Ex. B 8 DUBs): 12.7-199; minimum fold more potent against USP30 than against each of the eight DUBs ([4]; USP2, USP6, USP10, USP16, USP21, USP22, USP25, USP28, 'A' not tested against USP6): 12.7 fold; IC50 [6, 17]: 1.1 µM
CC1CC(C(=O)Nc2ncc(-c3ccccc3)s2)CN1C#N (stereo not drawn) [Reference Example D, reference compound]							fold more potent against USP30 than UCHL1 [1]: 1.5 fold
